Measured values taken from patent US8993612B2, “Modulators of calcium release-activated calcium channel and methods for treatment of non-small cell lung cancer” (Rhizen Pharmaceuticals SA, priority 2009, dated 2015).
Like-named read-outs stand apart in the source and are kept apart here.

What was measured:
NCI-H460 cells [1] = assay: In-vitro cell proliferation assay in NCI-H460 cancer cell line (MTT); assay type: cell-based, human; conditions: for IC50: read-out: NCI-H460 Cell line assay G1 50 nM
Experimental: Growth inhibition assays were carried out using 10% FBS supplemented media. Cells were seeded at a concentration of 5000 cells/well in a 96-well plate. Test compound at a concentration range from 0.01 to 10000 nM were added after 24 h. Growth was assessed using the 3-[4,5-dimethylthiazol-2-yl]-2,5-diphenyltetrazolium bromide (MTT) dye reduction test at 0 h (prior to the addition of the test compound) and 48 h after the addition of test compound. Absorbance was read on a Fluostar Optima (BMG Labtech, Germany) at a wave length of 450 nm. Data were analysed using GraphPad Prism. IC-50 for each compound was determined based on the % inhibition due to the test compound compared to the control.
For methods of cell proliferation assay, see, for example, Mosmann. T., Journal of Immunological Methods, 65(1-2), 55-63, (1983).
The effect of CRAC and/or STIM protein on the proliferation and viability of lung cancer cells was determined as follows.
For Methodology Refer 1C.

CRAC channels [2] = target: T1, CRAC channels (Homo sapiens (Human), UniProt Q96D31); assay: In-vitro CRAC channel inhibition assay in Jurkat cells (thapsigargin-induced calcium influx); assay type: cell-based
Experimental: Inhibition of CRAC channels was determined following thapsigargin (Sigma, Cat # T9033) induced endoplasmic calcium release in Jurkat cells. (see Yasurio Yonetoky et. al Bio. & Med. Chem. 14 (2006) 4750-4760). Cells were centrifuged and resuspended in equal volumes ° f Ca^2+ and Mg^2+ free Hanks buffer and Fluo-8 NW dye (ABD Bioquest, Inc., Sunnyvale, Calif.) loading solution at 2×10^5 cells/100 μl/well in 96-well black plate. Plate is incubated at 37° C./5% CO2 for 30 mM followed by further 15 mM incubation at room temperature. Test compounds (DMSO stocks diluted in Ca^2+ and Mg^2+ free Hanks buffer) at desired concentrations were added to the wells and incubated for […]. Thapsigargin (1 μM final concentration) was added to the wells and incubated for 15 min to inhibit the Sarco-endoplasmic reticulum Ca^2+ ATPase pump thereby depleting endoplasmic calcium and raising cytosolic calcium concentrations. Store-operated calcium entry was initiated by adding extracellular Ca^2+ to a final concentration of 1.8 mM. Fluorescence was monitored over […] on a plate reader (BMG Labtech., Germany) with excitation at 485 nm and an emission wavelength at 520 nm. Data were analyzed using GraphPad Prism. IC50 for each compound was determined based on the percent inhibition of thapsigargin-induced calcium influx into cells.

Stim1 = Stim1 mRNA expression in NCI-H460 cells by PCR; assay type: cell-based, human; conditions: 1 and 10 μM, qualitative PCR
Experimental: (§1) Orai1 and Stim1 expression in non-small cell lung cancer cell lines was confirmed by PCR (polymerase chain reaction). Briefly, 5×10^6 cells treated with desired concentrations of the test article were harvested, pelleted, and resuspended in 1 ml TRI Reagent (Sigma, St. Louis, Mo.) and total RNA was extracted as per the manufacturer's instructions. cDNA was prepared using the First Strand cDNA synthesis and amplified using the following primer pairs:
(§2) Bands were resolved by agarose gel electrophoresis and visualized using SYBR safe DNA gel stain.
(§3) Orai and Stim expressions were measured using the methodology described in Example 1 above in NCI-H460 cells but with 1 and 10 μM of compound B.

NCI-H460 cells [3] = assay: Cytotoxicity in NCI-H460 cells (lactate dehydrogenase assay); assay type: cell-based, human; conditions: 48 h
Experimental: Cytotoxicity of a test compound (Compound B) was determined using a lactate dehydrogenase assay kit (Cayman Chemicals, MI) as per the manufacturer's instructions with some minor modifications. Briefly, 20,000 cells/well in complete RPMI-1640 media were seeded in a 96-well tissue culture plate and incubated overnight at 37° C. and 5% CO2. The test compound was added to the wells in triplicate at the desired concentrations. Doxorubicin and/or 1% Triton-X were used as a positive control. After 48 h, the media was removed and assayed for lactate dehydrogenase in a colorimetric assay. Optical density was measured on a microplate reader (BMG Labtech., Germany) at 490 nM. Data were analyzed using Graphpad Prism (Graphpad software; San Diego Calif.).

Stim2 = Stim2 mRNA expression in NCI-H460 cells by PCR; assay type: cell-based, human; conditions: 1 and 10 μM, qualitative PCR
Experimental: as §1, §2, §3

Orai1 = Orai1 mRNA expression in NCI-H460 cells by PCR; assay type: cell-based, human; conditions: 1 and 10 μM, qualitative PCR
Experimental: as §1, §2, §3

CRAC channels [4] = target: T1, CRAC channels; assay: In-vitro CRAC channel inhibition assay in NCI-H460 cancer cell line (thapsigargin-induced calcium influx); assay type: cell-based; conditions: NCI-H460 cells
Experimental: Inhibition of CRAC channels was determined following thapsigargin (Sigma, Cat # T9033) induced endoplasmic calcium release in NCI-H460 cells (National Centre For Cell Science (NCCS), Pune).
Cells (30,000 per well) were plated overnight in complete RPMI medium. Medium was substituted with Ca^2+ and Mg^2+ free Hanks buffer and Fluo-8 NW dye (ABD Bioquest, Inc., Sunnyvale, Calif.) loading solution in 96-well black plate. Plate was incubated at 37° C./5% CO2 for 30 min followed by further 15 mM incubation at room temperature. Test compounds (DMSO stocks diluted in Ca^2+ and Mg^2+ free Hanks buffer) at desired concentrations were added to the wells and incubated for 15 min. Thapsigargin (1 μM final concentration) was added to the wells and incubated for 15 min to inhibit the Sarco-endoplasmic reticulum Ca^2+ ATPase pump thereby depleting endoplasmic calcium and raising cytosolic calcium concentrations. Store-operated calcium entry was initiated by adding extracellular Ca^2+ to a final concentration of 2.5 mM. Fluorescence was monitored over 30 mM on a plate reader (BMG Labtech., Germany) with excitation at 485 nm and an emission wavelength at 520 nm. Data were analyzed using GraphPad Prism. IC50 for each compound was determined based on the percent inhibition of Thapsigargin-induced calcium influx into cells.
For Methodology Refer 1B.

[5] = Body weight in the NCI-H460 xenograft study; assay type: in vivo; conditions: Balb/c nude mice
[6] = tested on: NCI-H460 human non-small cell lung cancer xenografts; assay: Anti-tumor efficacy in female Balb/c nude mice bearing NCI-H460 xenografts; assay type: in vivo
IL-5 [7] = assay: Inhibition of IL-5 release in PBMC; assay type: cell-based; conditions: Homo sapiens, Phytohemagglutinin, 48 h, read-out: IC 50 PBMC IL-5
Experimental: (§4) Inhibition of cytokine IL-2, IL-4, IL-5 and TNF α was determined as described below.
(§5) PBMC from freshly collected HWB were isolated by density gradient using Histopaque and seeded in a 96-well plate. Cells were incubated with desired concentrations of the inhibitor for 15 min. Cytokine release was induced by the addition of Concanavalin A (25 μg/ml)+Phorbol Myristate Acetate (50 ng/ml) for IL-2 & TNFα or with Phytohemagglutinin (5 μg/ml) for IL-4 & IL-5 and incubated at 37° C. in an atmosphere containing […]. Supernatant was collected after 20 h (IL-2 & TNFα) or 48 h (IL-4 & IL-5) for estimation of cytokines by ELISA. Data were analysed using GraphPad Prism. IC50 values for each compound were determined based on the percent inhibition due to the test compound compared to the control.

IL-4 [8] = assay: Inhibition of IL-4 release in PBMC; assay type: cell-based; conditions: Homo sapiens, Phytohemagglutinin, 48 h, read-out: IC 50 PBMC IL-4
Experimental: as §4, §5

IL-4 [9] = assay: Inhibition of IL-4 release in human whole blood; assay type: cell-based; conditions: Phytohemagglutinin, 48 h, read-out: IC 50 Human Whole Blood IL-4
Experimental: as §4
as §5, with “Freshly” for “PBMC from freshly”, “was diluted with RPMI medium (1:4.5)” for “were isolated by density gradient using Histopaque”, “added to” for “seeded in”, “Wells” for “Cells”

IL-5 [10] = assay: Inhibition of IL-5 release in human whole blood; assay type: cell-based; conditions: Phytohemagglutinin, 48 h, read-out: IC 50 Human Whole Blood IL-5
Experimental: as §4
as §5, with “Freshly” for “PBMC from freshly”, “was diluted with RPMI medium (1:4.5)” for “were isolated by density gradient using Histopaque”, “added to” for “seeded in”, “Wells” for “Cells”

IL-2 [11] = assay: Inhibition of IL-2 release in PBMC; assay type: cell-based; conditions: Homo sapiens, Concanavalin A + PMA, 20 h, read-out: IC 50 PBMC IL-2
Experimental: as §4, §5

TNFα [12] = assay: Inhibition of TNFα release in PBMC; assay type: cell-based; conditions: Homo sapiens, Concanavalin A + PMA, 20 h, read-out: IC 50 PBMC TNFα
Experimental: as §4, §5

IL-2 [13] = assay: Inhibition of IL-2 release in human whole blood; assay type: cell-based; conditions: Concanavalin A + PMA, 20 h, read-out: IC 50 Human Whole Blood IL-2
Experimental: as §4
as §5, with “Freshly” for “PBMC from freshly”, “was diluted with RPMI medium (1:4.5)” for “were isolated by density gradient using Histopaque”, “added to” for “seeded in”, “Wells” for “Cells”

TNFα [14] = assay: Inhibition of TNFα release in human whole blood; assay type: cell-based; conditions: Concanavalin A + PMA, 20 h, read-out: IC 50 Human Whole Blood TNFα
Experimental: as §4
as §5, with “Freshly” for “PBMC from freshly”, “was diluted with RPMI medium (1:4.5)” for “were isolated by density gradient using Histopaque”, “added to” for “seeded in”, “Wells” for “Cells”

[15] = tested on: CRAC channels over the voltage operated channels (VOC); conditions: Yonetoky et al.; cited from earlier work
[16] = 30 mg/kg orally BID for 15 days

T1 sequence (Q96D31 whole entry): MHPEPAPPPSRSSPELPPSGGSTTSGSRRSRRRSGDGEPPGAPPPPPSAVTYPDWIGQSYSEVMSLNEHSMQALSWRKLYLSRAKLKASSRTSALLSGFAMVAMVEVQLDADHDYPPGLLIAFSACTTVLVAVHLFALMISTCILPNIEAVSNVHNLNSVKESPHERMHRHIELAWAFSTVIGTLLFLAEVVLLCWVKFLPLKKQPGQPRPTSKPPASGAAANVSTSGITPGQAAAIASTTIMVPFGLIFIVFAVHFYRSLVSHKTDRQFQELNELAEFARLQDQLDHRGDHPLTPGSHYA

O=C(Cc1ccc2ncccc2c1)Nc1ccc(-n2nc(C3CC3)cc2C2CC2)cc1 [Example 9, N-[4-(3,5-dicyclopropyl-1H-pyrazol-1-yl)phenyl]-2-(quinolin-6-yl)acetamide]
IC50 (NCI-H460 cells [1]; Homo sapiens, NCI-H460, 48 h): 270 nM
inhibition at 1 µM (CRAC channels [2]): 100%
mRNA expression of Stim1 (Stim1): significantly reduced
Cytotoxicity (lactate dehydrogenase in the media) (NCI-H460 cells [3]): not cytotoxic
mRNA expression of Stim2 (Stim2): significantly reduced
mRNA expression of Orai1 (Orai1): significantly reduced

O=C(Cn1cnc2ccccc21)Nc1ccc(-n2nc(C(F)(F)F)cc2C2CC2)cc1 [Example 19, 2-(1H-benzo[d]imidazol-1-yl)-N-{4-[5-cyclopropyl-3-(trifluoromethyl)-1H-pyrazol-1-yl]phenyl}acetamide]
inhibition at 1 µM (CRAC channels [4]; 1 μM, read-out: NCI-H460 Cell Ca assay % inhibition @ 1 μM): 100%
IC50 (CRAC channels [4]; read-out: NCI-H460 Cell Ca assay IC 50 nM): < 200 nM
IC50 (NCI-H460 cells [1]; 48 h): 148 nM
inhibition at 1 µM (NCI-H460 cells [1]; Homo sapiens, NCI-H460, 1 uM, 48 h): 100%
inhibition at 10 µM (NCI-H460 cells [1]; Homo sapiens, NCI-H460, 10 μM, 48 h): 83.6%
IC50 (NCI-H460 cells [1]; Homo sapiens, NCI-H460, 48 h): < 200 nM
change in body weight [5, 16]: without any significant change
inhibition at 1 µM (CRAC channels [2]): 69.5%
reduction in tumor growth [6, 16]: 32%

O=C(Cn1nnc2ccccc21)Nc1ccc(-n2nc(C(F)(F)F)cc2C2CC2)cc1 [Example 20, 2-(1H-benzo[d][1,2,3]triazol-1-yl)-N-{4-[5-cyclopropyl-3-(trifluoromethyl)-1H-pyrazol-1-yl]phenyl}acetamide]
IC50 (IL-5 [7]): 149 nM
IC50 (IL-4 [8]): 540 nM
IC50 (IL-4 [9]): 1230 nM
IC50 (IL-5 [10]): 164 nM
IC50 (IL-2 [11]): 383 nM
IC50 (CRAC channels [2]): 39.2 nM
inhibition at 1 µM (CRAC channels [2]): 100%
IC50 (TNFα [12]): 138 nM
IC50 (IL-2 [13]): 40.7 nM
IC50 (TNFα [14]): 35.6 nM

Cc1nnsc1C(=O)Nc1ccc(-n2nc(C(F)(F)F)cc2C(F)(F)F)cc1 [YM-58483]
selective index for CRAC channels over VOC [15]: 31

CC(=O)O[C@H]1C(=O)[C@@]2(C)[C@H]([C@H](OC(=O)c3ccccc3)[C@]3(O)C[C@H](OC(=O)[C@H](O)[C@@H](NC(=O)c4ccccc4)c4ccccc4)C(C)=C1C3(C)C)[C@]1(OC(C)=O)CO[C@@H]1C[C@@H]2O [taxol, Paclitaxel, reference compound]
change in body weight ([5]; intravenous administration): significant reduction
reduction in tumor growth ([6]; intravenous administration): 36%
